Measured values published in publication PMC6487176, “Specific Binding Peptides from Rv3632: A Strategy for Blocking Mycobacterium tuberculosis Entry to Target Cells?” (BioMed Research International, 2019).
Where no end group is shown, it is not given here.

Key:
Format in all cases: cell-based
[1] = tested on: U937 macrophage line; conditions: MTT; peptide 20 and 200 μM in 1X PBS, 2 h; 5 x 10^4 cells/well; absorbance 570 nm
Method: Rv3632 peptides' cytotoxic effect was evaluated by viability assay involving MTT (3- (4,5-dimethylthiazol-2-yl) -2,5-diphenyltetrazolium bromide) tetrazolium reduction, where 5 x 10^4 cells/well were incubated for 2 hours with each peptide at 20 and 200 μM in 1X PBS, using the previously mentioned incubation conditions for the invasion assay; 10% SDS was used as cytotoxicity control. After incubation time had elapsed, 10μL MTT were added to each well and left for 12 hours; the formazan crystals so formed were dissolved with sodium dodecyl sulfate (SDS) for reading absorbance at 570nm on a spectrophotometer (Multiskan GO, Thermo Scientific). Multiskan GO (v. 3.2) software was used for analysing the data.

[2] = tested on: Mtb H37Rv entry to U937 macrophages; test: microbe, parasite or virus in culture; conditions: Mycobacterium tuberculosis, U-937, 480 h, inhibition control at 30 μM, triplicate, read-out: inhibition of mycobacterial entry to U937 monocyte-derived macrophages
[3] = tested on: Mtb H37Rv entry to A549 alveolar epithelial cells; test: microbe, parasite or virus in culture; conditions: Mycobacterium tuberculosis, A549, 480 h, inhibition control at 30 μM, triplicate, read-out: inhibition of mycobacterial entry to A549 epithelial cells

TLSTYMRFKDLELRYARIAR [compound 39255]
cytotoxic effect on the U937 macrophage line, result in words [1]: without having a cytotoxic effect

C=C1[C@@H](C)[C@H]2[C@H](Cc3ccccc3)NC(=O)[C@]23[C@H](OC(C)=O)/C=C/[C@@](C)(O)C(=O)[C@@H](C)C/C=C/[C@H]3[C@@H]1O [Cytochalasin, Cytochalasin D]
inhibition at 30 µM [2]: 80%
inhibition at 30 µM [3]: 60%
